The test system of this assay is E. coli BL21. As to the method:
The peptide MIC was determined via the broth microdilution assay according to the EUCAST guideline, using 96-well polystyrene flat-bottom microtiter plates (BD Biosciences). Briefly, a single colony was inoculated in 5 mL Mueller-Hinton (MH) medium and incubated, while shaking at 37°C, to the end-exponential growth phase. The bacterial culture was subsequently diluted to 0.005 McFarland (McF) (~1.5x10^6 CFU/mL) with fresh MH medium. Two-fold serial peptide-dilutions were prepared in 50 μL MH medium resulting in a concentration range of 0.75 to 100 μg/mL (at least three wells for each concentration). Afterwards, 50 μL of the freshly diluted bacterial suspension (0.005 McF) was mixed with different peptide concentrations in the 96-well plate, performed in triplicates. The plate was ultimately incubated at 37°C overnight without shaking for 17 hours. The MIC was determined as the lowest peptide concentration without visible bacterial growth.

Like-named read-outs stand apart in the source and are kept apart here. Residues, ends and D or L forms follow the SMILES beside them.

Consider `CC(C)C[C@H](NC(=O)CNC(=O)[C@H](CCCNC(=N)N)NC(=O)[C@@H]1CCCN1C(=O)[C@H](CCCNC(=N)N)NC(=O)[C@H](CCCNC(=N)N)NC(=O)[C@@H](NC(=O)[C@H](CC(C)C)NC(=O)[C@H](C)NC(=O)[C@H](CC(C)C)NC(=O)[C@H](C)NC(=O)[C@H](CC(C)C)NC(=O)CNC(=O)[C@@H](N)CCCNC(=N)N)C(C)C)C(=O)NCC(=O)N[C@@H](CC(C)C)C(=O)N[C@@H](C)C(=O)N[C@@H](CC(C)C)C(=O)N[C@H](C(=O)N[C@@H](CCCNC(=N)N)C(=O)N[C@@H](CCCNC(=N)N)C(=O)O)C(C)C` [Peptide P2_G4A] (H-RGLALALVRRPRGLGLALVRR-OH), for which, for the setting “BL21, 17 h”, the “BL21 MIC” value was 6.25 µg/mL. Same read-out and setting: the result for `CSCC[C@H](NC(=O)[C@H](CC(C)C)NC(=O)CNC(=O)[C@H](CC(C)C)NC(=O)CNC(=O)[C@H](CCCNC(=N)N)NC(=O)[C@@H]1CCCN1C(=O)[C@H](CCCNC(=N)N)NC(=O)[C@H](CCCNC(=N)N)NC(=O)[C@@H](NC(=O)[C@H](CC(C)C)NC(=O)[C@H](CCSC)NC(=O)[C@H](CC(C)C)NC(=O)CNC(=O)[C@H](CC(C)C)NC(=O)CNC(=O)[C@@H](N)CCCNC(=N)N)C(C)C)C(=O)N[C@@H](CC(C)C)C(=O)N[C@H](C(=O)N[C@@H](CCCNC(=N)N)C(=O)N[C@@H](CCCNC(=N)N)C(=O)O)C(C)C` [A5M (P2)] (H-RGLGLMLVRRPRGLGLMLVRR-OH) reads 6.25 µg/mL; that for `CC(C)C[C@H](NC(=O)CNC(=O)[C@@H](N)CCCNC(=N)N)C(=O)NCC(=O)N[C@@H](CC(C)C)C(=O)N[C@@H](C)C(=O)N[C@@H](CC(C)C)C(=O)N[C@H](C(=O)N[C@@H](CCCNC(=N)N)C(=O)N[C@@H](CCCNC(=N)N)C(=O)N1CCC[C@H]1C(=O)N[C@@H](CCCNC(=N)N)C(=O)N[C@@H](C)C(=O)N[C@@H](CC(C)C)C(=O)NCC(=O)N[C@@H](CC(C)C)C(=O)N[C@@H](C)C(=O)N[C@@H](CC(C)C)C(=O)N[C@H](C(=O)N[C@@H](CCCNC(=N)N)C(=O)N[C@@H](CCCNC(=N)N)C(=O)O)C(C)C)C(C)C` [Peptide P2_G13A] (H-RGLGLALVRRPRALGLALVRR-OH), 12.50 µg/mL; that for `CC(C)C[C@H](NC(=O)CNC(=O)[C@@H](N)CCCNC(=N)N)C(=O)NCC(=O)N[C@@H](CC(C)C)C(=O)N[C@@H](C)C(=O)N[C@@H](CC(C)C)C(=O)N[C@H](C(=O)N[C@@H](CCCNC(=N)N)C(=O)N[C@@H](CCCNC(=N)N)C(=O)N1CCC[C@H]1C(=O)N[C@@H](CCCNC(=N)N)C(=O)NCC(=O)N[C@@H](CC(C)C)C(=O)N[C@@H](C)C(=O)N[C@@H](CC(C)C)C(=O)N[C@@H](C)C(=O)N[C@@H](CC(C)C)C(=O)N[C@H](C(=O)N[C@@H](CCCNC(=N)N)C(=O)N[C@@H](CCCNC(=N)N)C(=O)O)C(C)C)C(C)C` [Peptide P2_G15A] (H-RGLGLALVRRPRGLALALVRR-OH), 12.50 µg/mL. Still for that read-out and setting: the figure for `CC[C@H](C)[C@H](NC(=O)[C@H](CC(C)C)NC(=O)CNC(=O)[C@H](CC(C)C)NC(=O)CNC(=O)[C@H](CCCNC(=N)N)NC(=O)[C@@H]1CCCN1C(=O)[C@H](CCCNC(=N)N)NC(=O)[C@H](CCCNC(=N)N)NC(=O)[C@@H](NC(=O)[C@H](CC(C)C)NC(=O)[C@H](C)NC(=O)[C@H](CC(C)C)NC(=O)CNC(=O)[C@H](CC(C)C)NC(=O)CNC(=O)[C@@H](N)CCCNC(=N)N)C(C)C)C(=O)N[C@@H](CC(C)C)C(=O)N[C@H](C(=O)N[C@@H](CCCNC(=N)N)C(=O)N[C@@H](CCCNC(=N)N)C(=O)O)C(C)C` [Peptide P2_A5I] (H-RGLGLALVRRPRGLGLILVRR-OH) is 12.50 µg/mL. For the molecule `CC(C)C[C@H](NC(=O)CNC(=O)[C@H](CC(N)=O)NC(=O)[C@@H]1CCCN1C(=O)[C@H](CC(N)=O)NC(=O)[C@H](CC(N)=O)NC(=O)[C@@H](NC(=O)[C@H](CC(C)C)NC(=O)[C@H](C)NC(=O)[C@H](CC(C)C)NC(=O)CNC(=O)[C@H](CC(C)C)NC(=O)CNC(=O)[C@@H](N)CC(N)=O)C(C)C)C(=O)NCC(=O)N[C@@H](CC(C)C)C(=O)N[C@@H](C)C(=O)N[C@@H](CC(C)C)C(=O)N[C@H](C(=O)N[C@@H](CC(N)=O)C(=O)N[C@@H](CC(N)=O)C(=O)O)C(C)C` [Peptide P2_N] (H-NGLGLALVNNPNGLGLALVNN-OH), under “S1 Table, gatekeeper modification, broth microdilution, MH medium, 37°C, 17 h”, the “BL21 MIC” value is more than 100.00 µg/mL.

The values above are taken from paper PMC10065276, “Enhanced therapeutic window for antimicrobial Pept-ins by investigating their structure-activity relationship” (PLOS ONE, 2023).
